# Assay results taken from a melting point compilation (Tetko et al.; mined from patent text by program, amines drawn as free bases though some values may be those of a salt).
row,melting point,Compound
1,150 °C,N#Cc1ccc(Oc2nc(Nc3cccc(C(=O)O)c3)nc(Oc3ccccc3)n2)cc1
2,113 to 117 °C,COC(=O)c1nc(-c2ccc(Cl)c(OC)c2F)c(F)c(N)c1SC
3,182 to 184 °C,Cc1cccc(C(=O)c2[nH]c3cc(Cl)ccc3c2CC(=O)O)c1
4,210 to 213 °C,COc1ccc2[nH]cc(C3=CCC(N4CCN(c5cccc(Cl)n5)CC4)CC3)c2c1 (stereo unspecified)
5,67 to 68 °C,Cc1cccc([N+](=O)[O-])c1CO
6,242 to 243 °C,CC(C)Nn1c(CO)nc2c(N)nc3cccnc3c21
7,108 to 110 °C,COCCNC(=O)c1cccc(-c2cccc3cc(Cc4cccc(F)c4)sc23)c1
8,135 to 138 °C,Cn1nc(-c2c(F)cc(Cl)c(=S)n2Cc2ccccc2)c(Cl)c1OC(F)F
9,149 to 150 °C,COc1ccc(Br)cc1-c1cc(-c2cccc(Br)c2)on1
10,112 to 116 °C,CC12CCC3(CC1CCC1C2CCC2(C)C1CC(O)C2N=[N+]=[N-])OCCO3 (stereo unspecified)
11,144 to 148 °C,Cc1c(CCC(=O)O)cccc1C(=O)c1ccc(Cl)cc1
12,99 to 100 °C,CC(=O)N[C@@H](C)COC1CCN(c2nc3cc(OCC4CC4)ccc3o2)CC1
13,81 to 83 °C,CCCCCCCCCCCCCCCCCCOc1cccc(C(=O)O)c1OCCCOc1ccc(O)cc1
14,170 °C,CCNC(=S)NNC(=O)C(F)(F)F
15,109 to 110 °C,CN(C)C(=O)Cc1ccccc1Nc1c(F)c(F)cc(F)c1F
16,119 to 121 °C,CC(C)Cn1c(=O)n(C)c(=O)c2c(SCCCO)c(Cc3cccnc3)sc21
17,172 to 174 °C,CC(C)(C)c1cc(SCCc2nnc(N)o2)cc(C(C)(C)C)c1O
18,52 to 54 °C,CCCCCCCCCCCCCCOCC(COCCCCCCCCCCCCCC)(CC(=O)N(C)C)CC(=O)N(C)C
19,214 to 215 °C,CN1C(=O)NC2(CCCCC2)C1=O
20,135 to 150 °C,O=C(O)c1cc(SCC(=O)c2ccccc2)cc(C(F)(F)F)c1
21,56 to 57 °C,CC=CC(=O)OCC(C)(Sc1cc2ccccc2n1C)c1ccccc1 (stereo unspecified)
22,195 to 197 °C,COc1ccc(N2CCN(Cc3n[nH]c4c(F)c(F)ccc34)CC2)cc1
23,185 °C,CCCC1=C(C(=O)OCC)C(c2cccc(Cl)c2C)c2c[nH]nc2N1 (stereo unspecified)
24,138 to 140 °C,NC(=O)N(O)CCOc1ccc2c(c1)CCN(CCCc1ccc(F)cc1)C2=O

row,melting point,Compound
1,> 250 °C,Cn1ncc(C(=O)N2CCS(=O)(=O)CC2)c1C(=O)Nc1ccn2nc(-c3ccccc3)nc2c1
2,258 to 260 °C,COc1cc(-c2nc(-c3ccc(N(C)C)cc3)c(-c3ccc(N(C)C)cc3)[nH]2)cc(OC)c1O
3,115 to 117 °C,CCOCn1nccc1C(=O)c1ccc(O)c(Cl)c1Cl
4,46 to 49 °C,Cc1nc(-c2cc(C)c(OCCCc3cccnc3)c(C)c2)no1
5,245 to 248 °C,CCn1cc(C(=O)O)c(=O)c2cc(F)c(N3CC(C)C(CN)C3)cc21 (stereo unspecified)
6,90 °C,CC(C)(C)N1CC(COc2cccc3c2SCCC3)OC1=O (stereo unspecified)
7,110 to 111 °C,Nc1ncc(Cc2ccccc2)cc1Br
8,174 °C,COc1ccc(-c2cc(-c3c(-c4cccc(C)n4)nc4ccccn34)ccn2)cc1
9,151 to 152 °C,CC(C)c1cccc(C(C)C)c1NC(=O)N(Cc1ccc(N(C)C)cc1)c1ccc(Cl)cc1
10,181 to 182 °C,COc1ccc(CN2C(=O)[C@@H](NC(=O)Cc3ccccc3)[C@H]2CI)c(OC)c1 (relative stereo)
11,60 to 64 °C,Cc1cc(C(C)(C)O)ccc1-c1ccccc1
12,36 to 36.5 °C,CC(C)c1cccc2cc3ccccc3cc12
13,137 to 138 °C,O=C(NCCc1ccccc1CO)c1ccc([N+](=O)[O-])cc1
14,74 to 75.5 °C,CNC(=O)NCCCCc1cccc(OC)c1
15,46 to 49 °C,CCCCCCOc1cccc2ncccc12
16,92.5 to 95 °C,CCOC(=O)Nc1cc(OCC)c(Br)cc1F
17,222 to 224 °C,O=C(O)c1ccc(CCn2ccn([C@H]3CCc4c(F)cc(F)cc4C3)c2=S)cc1
18,256 °C,O=C(Nc1nccs1)c1c(C(F)(F)F)nc(-c2ccccc2)c(-c2ccccc2)c1O
19,157 to 158 °C,Clc1ncccc1-c1ncoc1-c1cccnc1Cl
20,250 to 252 °C,Cc1ccc(C)c(NC(=O)CN2C(=O)C3(COc4cc5c(cc43)CCO5)c3ccccc32)c1 (stereo unspecified)
21,205 to 206 °C,FC(F)(F)c1ccc(Nc2nnc(Cc3ccncc3)c3ccccc23)cc1
22,111 to 115 °C,Cc1cc(C(=O)NC2CC2)ccc1N1CCN(C(=O)OC(C)(C)C)CC1
23,132 °C,c1ccc(C2CN=C3Sc4ccccc4N32)cc1 (stereo unspecified)
24,158 to 160 °C,CC(C)(C)OC(=O)NC1CCCCCC=CC2CC2(C(=O)NS(=O)(=O)C2CC2)NC(=O)C2CC(OC(=O)c3ccc4nccnc4c3)CN2C1=O (stereo unspecified)

row,melting point,Compound
1,114 to 115 °C,CCOC(=O)c1cncn1-c1ccc(F)cc1
2,80 to 81 °C,COCCSC(F)(F)C(O)(Cn1cncn1)c1ccc(F)cc1F (stereo unspecified)
3,153 °C,Nc1cc(F)c([N+](=O)[O-])cc1F
4,93 to 105 °C,CCCNC(=O)C(CC)Cc1ccc2c(c1)c(Cc1ccc(C(=O)NS(=O)(=O)c3ccccc3C)cc1OC)cn2CCC (stereo unspecified)
5,277 °C,Cc1ccccc1Sc1c(N)cc(C(=O)O)cc1S(N)(=O)=O
6,176 to 178 °C,N#Cc1cnc2c(Br)csc2c1Cl
7,75 to 79 °C,CCOC(=O)C1=C(C)NC(C)=C(C(=O)OCCN2CCN(C(c3ccccc3)c3ccccc3)CC2)C1c1ccc(Cl)cc1 (stereo unspecified)
8,218 to 220 °C,COc1cc(Nc2c(C#N)cnc3cc(-c4ccc(CN5CCCCC5)cc4)sc23)c(Cl)cc1Cl
9,71 °C,Cc1ccc(SCc2noc(-c3ccccc3)n2)cc1
10,59.4 to 60.5 °C,COC(=O)C(CCCCCCCCCCCCC(C(=O)O)C1CC1)C1CC1 (stereo unspecified)
11,> 250 °C,N[C@@]1(C(=O)O)C[C@H](Oc2ccc(Cl)cc2Cl)[C@H]2[C@H](C(=O)O)[C@H]21 (relative stereo)
12,137 to 139 °C,C1=CC(Nc2ccccc2)C(=Nc2ccccc2)N1 (stereo unspecified)
13,123 to 125 °C,CC(C)(C)OC(=O)N[C@@H](CC1CCCCC1)[C@@H]1C[C@@H](C(C)(C)O)C(=O)O1
14,172 to 173 °C,CCOC(=O)c1cnc2ccn(Cc3ccccc3)n2c1=O
15,200 to 202 °C,COC(=O)c1nc(-c2ccc(Cl)c(OC)c2F)nc(N)c1F
16,142 to 143 °C,NCCSC(c1ccccc1)(c1ccccc1)c1ccccc1
17,150 to 152 °C,O=Cc1cc2ccccc2nc1I
18,134 to 135 °C,OCC1(O)CSC(=S)N1c1ccccn1 (stereo unspecified)
19,161 to 163 °C,CCCCCCC(=O)N1C(C)Cc2ccccc2C1CNC(=O)c1cc(OC)c(OC)c(OC)c1 (stereo unspecified)
20,216 to 219 °C,C[C@@H]1Cc2cc3c(cc2C(c2ccc(Cl)cc2)=NN1C1=NCCS1)OCO3
21,167 to 168 °C,NC(=O)Nc1ccc(OC(F)C(F)(F)F)cc1 (stereo unspecified)
22,192 to 197 °C,COCc1c(C=O)ncc2c1c1c(OCc3ccccc3)cccc1n2CC(=O)N(C)CCc1ccccc1
23,93.6 °C,CCC(=O)Oc1cc(OC)cc(OC)c1C(=O)C=Cc1ccco1
24,240 °C,CCNC(=O)CCCC1CCN(Cc2cnc3cc(NC(=O)c4ccc(-c5ccc(F)cc5)cc4)c(C)cc3c2)CC1

row,melting point,Compound
1,188 °C,OC(CNC1=NCCCN1)c1ccccc1 (stereo unspecified)
2,91 to 92 °C,COc1ccc(Cl)cc1CCC(=O)O
3,128 to 129 °C,COC(=O)c1c(-c2ccccc2Cl)c2cc(C)cc(C)c2n(C)c1=O
4,86 to 87 °C,CC(=O)c1ccc(CCCOc2c(C)cc(N3CN=C(C(F)(F)F)O3)cc2C)nn1
5,231 to 232 °C,CC(C)n1nc(-c2c(F)nc(N)nc2-c2ccccc2)ccc1=O
6,105 to 106 °C,CSc1ccc(C=C2C=CC=C2)cc1
7,176 to 178 °C,COc1cn(-c2cccc(C(F)(F)F)c2)nc(C(=O)C=CN(C)C)c1=O
8,119 to 121 °C,Cc1oc2ccc(Br)cc2c(=O)c1-c1ccccc1
9,146 to 148 °C,CCN(c1ccc(Cl)cc1[N+](=O)[O-])S(=O)(=O)c1ccc(C#N)cc1
10,178 to 181 °C,Cc1ccc2c(-c3cc(C(C)(C)C)c(O)c(C(C)(C)C)c3)nn(C)c2n1
11,165 to 166 °C,CCCS(=O)c1sc(C(N)=O)c2c1-c1c(cnn1CC(F)(F)F)CC2 (stereo unspecified)
12,55 to 56 °C,CC(C#N)c1cc([N+](=O)[O-])ccc1F (stereo unspecified)
13,115 to 118 °C,CCN(CC)C(=O)C1CCC2C3CC=C4N(C)C(=O)CCC4(C)C3CCC12C (stereo unspecified)
14,168 to 170 °C,O=C(Nc1c(F)cccc1F)c1ccc(-n2nc(C(F)(F)F)cc2C2CC2)c(F)c1
15,136 to 137 °C,CCOC(NC(=O)c1cccc(Cl)c1)C(N)=S (stereo unspecified)
16,146 to 147 °C,NS(=O)(=O)Oc1cc(Cl)cc(Cl)c1
17,162 °C,O=C(c1sc2c(ccc(=O)n2-c2ccccc2)c1Br)N1CC(OC2CCCCO2)C1 (stereo unspecified)
18,185 to 187 °C,O=C1CCC(c2ccc3[nH]c(C(=O)O)cc3c2)=NN1
19,121 °C,CCO/C(=C\c1ccc(OCCc2ccc(OCC)cc2)c(OC)c1)C(=O)O
20,171 to 172 °C,COC(=O)c1cc(C(=O)OC)n(-c2ccc(N)cc2C(=O)c2ccccc2)n1
21,62 °C,C#CCn1c(C)c(CO)sc1=O

row,Compound,melting point
1,Clc1cccc2c(CCN3CCCCC3)c(-c3ccccc3)[nH]c12,178 to 179 °C
2,CC1C(=O)N(c2ccc([N+](=O)[O-])cc2)C(=S)N1c1ccc(Cc2ccccc2)cc1 (stereo unspecified),200 °C
3,CN(C)CCc1nc(C(N)=O)c2n1-c1ccc(Cl)cc1C(c1ccccc1Cl)=NC2,249 to 251 °C
4,CC(C=Cc1cccc(-c2cc3c(cc2C)C(C)(C)CCC3(C)C)c1)=CC(=O)O,99 to 101 °C
5,C=CCN1CCC23c4c5ccc(O)c4OC2C(C)C(=NO)CC3(O)C1C5 (stereo unspecified),128 to 129 °C
6,COC1CCC2C3CCC4CC(C)(O)CCC4(C)C3CCC12C (stereo unspecified),151 to 154 °C
7,C(#Cc1ccc2[nH]ccc2c1)CCN1CC=C(c2ccccc2)CC1,173 to 174 °C
8,CC(C)(C)c1nc(-c2nn(-c3ccc(F)cc3F)c3c2C2CCC3C2)n[nH]1 (stereo unspecified),268 to 269 °C
